Experimental data taken from PMC11903455 (Frontiers in Pharmacology, 2025).
Counter-ions that a name gives are not always drawn. Like-named read-outs stand apart in the source and are kept apart here.

Columns and labels:
[1] = Stability of crocetin in plasma samples; type: in vitro ADME, rat; details: within one week at -20°C, n = 6
Procedure: The procedures for precision, stability, limit of quantitation, and sample recovery are described in the Supplementary Material S2.4 Methodological Investigations section.
Plasma samples were collected 30 minutes after administration (n=6). The stability of the samples was calculated within one week at -20°C.

Caco-2 cells = details: no method or reference given; cited from earlier work
[2] = Crocetin content of plasma sample by SERS and liquid phase determination; type: in vivo; details: SD, rat, oral, 4.5 mg kg^−1, 0.5 h medium-dose plasma
Procedure: The samples were analyzed by high performance liquid chromatography.
The treatment of plasma samples is described in Procedure 2.2.3. 50 uL of treated plasma was added into silver nanoparticle solution with an equal volume concentration of 10 mg/mL 50 uL mixed solution was placed on a round quartz sheet with a diameter of 1 cm, […] and the Raman spectrum was detected and recorded. Detection conditions: scanning time 3 s, laser power: 80 mW. Spectra are acquired by Optosky Raman microscopy software.
A standard curve was prepared based on the peak intensity of the characteristic peak at 1,532 cm^−1 and the content was determined, as shown in Figure 10C.

[3] = tested on: γ-aminobutyric acid (GABA); experiment: ELISA of brain tissue: GABA; type: in vivo, rat
Procedure: (§1) Anxiety-like depression rat model is induced by chronic induction of corticosterone. Five-week-old SD male rats (8/cage) randomly received 0.45% soluble Corticosterone suspension in β-cyclodextrin. The number of rats in each group has been supplemented in part 1.2 of the manuscript method. Specifically described as “The rats were randomly divided into 7 groups, 8 rats in each group, a total of 56 rats. […] The model was established by subcutaneous injection of corticosterone (20 mg⋅kg^−1) for 21 consecutive days. […] The control group and model group were given the same volume of normal saline. Solution preparation methods are described in Supplementary Material S1.1.
(§2) The contents of Serotonin transporter (5-HTT, JW.RA1057), dopamine (DA, JW.RA1621), γ-aminobutyric acid (GABA, JW.RA1389) and noradrenaline (NA, JW.RA2154) in the hippocampus were measured by ELISA kit. The tissue samples were added to PBS low-temperature homogenate according to 1:10, and the homogenate was centrifuged at 10,000 rpm at 4 °C […] for 10 min. The supernatant was taken to detect the content of the sample.

dopamine (DA) = experiment: ELISA of brain tissue: DA; type: in vivo, rat; details: for brain DA compared with the control group: crocin I high-dose group, positive drug group
Procedure: as §1, §2

cortical neurons = experiment: Nissl staining of prefrontal cortex; type: in vivo, rat; details: crocin I low, medium, high doses; Gardenia extract 0.9 g/kg; positive drug 5 mg/kg
From the text: (§3) Anxiety-like depression rat model is induced by chronic induction of corticosterone. Five-week-old SD male rats (8/cage) randomly received 0.45% soluble Corticosterone suspension in β-cyclodextrin. The number of rats in each group has been supplemented in part 1.2 of the manuscript method. Specifically described as “The rats were randomly divided into 7 groups, 8 rats in each group, a total of 56 rats. The number of groups were model group, blank control group, positive drug group, low, middle, and high dose of Crocin I group, and gardenia extract group respectively. The model was established by subcutaneous injection of corticosterone (20 mg⋅kg^−1) for 21 consecutive days. […] The control group and model group were given the same volume of normal saline. Solution preparation methods are described in Supplementary Material S1.1.
(§4) The rats were deeply anesthetized with 2% sodium pentobarbital. After 15 min, the rats heart were perfused and fixed with normal saline and 4% paraformaldehyde, respectively. Then the brain tissues of rats in different groups were collected. The brain tissue was cryosectioned at a thickness of 3 μm, and then Nissl staining was performed to analyze the hippocampal region of interest. The staining process is detailed in Supplementary Material S1.4.
After the behavioral evaluation of the rats, the rats were anesthetized and decapitated to take the brain. […]

hippocampal neurons = experiment: Nissl staining of hippocampus (DG, CA1, CA3); type: in vivo, rat; details: for neuronal cell damage in the dentate gyrus region: after administration, corticosterone model rats; for number of Nissl bodies, hippocampal CA3: crocin I low, medium, high dose, positive drug 5 mg/kg; for number of Nissl bodies, hippocampal CA1: high dose crocin I (9 mg/kg), positive control drug 5 mg/kg
From the text: as §3, §4
After the behavioral evaluation of the rats, the rats were anesthetized and decapitated to take the brain. The brain tissue was fixed with 4% paraformaldehyde for 24 hours. Rinse with normal saline to remove the residual fixative. Dehydration with 30% sucrose solution. It was embedded with an OTC embedding agent, and after it was completely frozen, the shape was trimmed and the sections were frozen. According to the localization map of rat brain sections, the target locations of the hippocampus and prefrontal cortex of rats were selected and sectioned continuously in the coronal plane with a thickness of 3 µm. Stick the slides with adhesive slides and bake the slides in an oven at 37 ℃ for half an hour. The slices were stained with methyl violet dye and rinsed with distilled water. Nissl Differentiation was used to differentiate for 5 s and most of the staining solution was removed. The slides were placed successively in different concentrations of ethanol and gradient dehydration (0%, 50%, 75%, and 95% ethanol, the section and background color should be observed under a microscope during dehydration). After dehydration, the sections were sealed with transparent and neutral gum in anhydrous ethanol Ⅰ, Ⅱ, anhydrous ethanol-xylene (1:1), xylene Ⅰ, and Ⅱ solution, respectively, and observed under a microscope.

noradrenaline (NA) = experiment: ELISA of brain tissue: NA; type: in vivo, rat
Procedure: as §1, §2

[4] = tested on: rats with corticosterone-induced anxiety-like depression; experiment: Morris water maze test; type: in vivo, rat
From the text: Anxiety-like depression rat model is induced by chronic induction of corticosterone. Five-week-old SD male rats (8/cage) randomly received 0.45% soluble Corticosterone suspension in β-cyclodextrin. The number of rats in each group has been supplemented in part 1.2 of the manuscript method. Specifically described as “The rats were randomly divided into 7 groups, 8 rats in each group, a total of 56 rats. The number of groups were model group, blank control group, positive drug group, low, middle, and high dose of Crocin I group, and gardenia extract group respectively. The model was established by subcutaneous injection of corticosterone (20 mg⋅kg^−1) for 21 consecutive days. […] The control group and model group were given the same volume of normal saline. […]
(§5) After the model was established. […] Depression was assessed by the preference for sweet foods in healthy rats ([Tan et al., 2020]) Details were provided in the Additional file: SI 1.2-1.3.
The water maze round pool was divided into Ⅰ, Ⅱ, Ⅲ, and Ⅳ quadrants. […] The position was placed once along the Ⅰ, Ⅱ, Ⅲ, and Ⅳ quadrants respectively, and the time of finding the platform within 60 seconds was recorded. […] After 5 days, the platform was removed, the animals were put into the pool from the original platform, and the number of rats crossing the target quadrant within 60 seconds was recorded.

[5] = tested on: rats with corticosterone-induced anxiety-like depression; experiment: Sucrose (sugar water) preference test; type: in vivo, rat; details: corticosterone model rats; crocin I 2.25, 4.5, 9 mg/kg intragastric
From the text: as §3, §5
1% sucrose aqueous solution was used in the experiment. […] On the day of the test, two bottles containing the same volume of 1% sucrose solution and ordinary water were put into cages, weighed before and after drinking water, and the liquid consumption in the two bottles within 24 hours was calculated.

[6] = no reference given; cited from earlier work
[7] = tested on: Serotonin transporter (5-HTT); experiment: ELISA of brain tissue: 5-HTT; type: in vivo, rat
Procedure: as §1, §2

[8] = gardenia extract 0.9 g/kg, positive drug paroxetine hydrochloride 5 mg/kg

CC(/C=C/C=C(\C)C(=O)O)=C\C=C\C=C(C)\C=C\C=C(/C)C(=O)O [crocetin]
stability in plasma samples: Accuracy (RE, %) ([1]; High dose plasma sample 837.96 ng/mL): 99.64% | stability in plasma samples: Accuracy (RE, %) ([1]; Low dose plasma sample 292.60 ng/mL): 97.76% | stability in plasma samples: Accuracy (RE, %) ([1]; Medium dose plasma sample 527.32 ng/mL): 97.14% | apparent permeability coefficient Papp (Caco-2 cells): high | concentration at 0.5 h ([2]; AgNPs, peak 1,532 cm^-1, read-out: crocetin content in plasma by SERS): 433 ng/mL | concentration at 0.5 h ([2]; same sample, read-out: crocetin content in plasma by liquid phase determination): 486 ng/mL

Fc1ccc([C@@H]2CCNC[C@H]2COc2ccc3c(c2)OCO3)cc1 [Positive, paroxetine hydrochloride, reference compound]
GABA expression level in brain tissue [3, 8]: 7.34 ± 0.30 µmol/L | brain DA compared with the control group (dopamine (DA)): no significant difference | DA expression level in brain tissue (dopamine (DA); [8]): 81.70 ± 1.94 nmol/L | number of Nissl bodies, prefrontal cortex (cortical neurons): increase | neuronal cell damage in the dentate gyrus region (hippocampal neurons): significantly improved | number of Nissl bodies, hippocampal CA3 (hippocampal neurons; gardenia extract 0.9 g/kg): no significant increase | number of Nissl bodies, hippocampal CA1 (hippocampal neurons; gardenia extract 0.9 g/kg): significantly increased | NA expression level in brain tissue (noradrenaline (NA); [8]): 4.64 ± 0.09 ng/mL

CC(/C=C/C=C(\C)C(=O)O[C@@H]1O[C@H](CO[C@@H]2O[C@H](CO)[C@@H](O)[C@H](O)[C@H]2O)[C@@H](O)[C@H](O)[C@H]1O)=C\C=C\C=C(C)\C=C\C=C(/C)C(=O)O[C@@H]1O[C@H](CO[C@@H]2O[C@H](CO)[C@@H](O)[C@H](O)[C@H]2O)[C@@H](O)[C@H](O)[C@H]1O [Crocin I, crocin I]
improvement of spatial memory ability ([4]; crocin I 2.25, 4.5, 9 mg/kg): dose-dependent | escape latency ([4]; crocin I low, middle and high dose groups (2.25, 4.5, 9 mg/kg)): decreased | sugar water preference [5]: dose-dependent | GABA expression level in brain tissue ([3]; High dose crocin I 9 mg/kg): 6.83 ± 0.29 µmol/L | GABA expression level in brain tissue ([3]; Low dose crocin I 2.25 mg/kg, control 7.43, model 4.99): 5.28 ± 0.21 µmol/L | GABA expression level in brain tissue ([3]; Medium dose crocin I 4.5 mg/kg): 5.49 ± 0.29 µmol/L | GABA content compared with the model group ([3]; crocin I low-dose group): no significant difference | oil-water partition coefficient (logP) [6]: −1.03 | DA expression level in brain tissue (dopamine (DA); High dose crocin I 9 mg/kg): 80.22 ± 2.64 nmol/L | DA expression level in brain tissue (dopamine (DA); Low dose crocin I 2.25 mg/kg, control 84.66, model 169.17): 147.33 ± 3.72 nmol/L | DA expression level in brain tissue (dopamine (DA); Medium dose crocin I 4.5 mg/kg): 137.22 ± 1.31 nmol/L | brain DA compared with the control group (dopamine (DA)): no significant difference | number of Nissl bodies, prefrontal cortex (cortical neurons): increased | apparent permeability coefficient Papp (Caco-2 cells): low | neuronal cell damage in the dentate gyrus region (hippocampal neurons): significantly improved | dentate gyrus morphology (angle/shape) (hippocampal neurons; crocin I high dose 9 mg/kg): significant changes | dentate gyrus morphology (angle/shape) (hippocampal neurons; crocin I low dose 2.25 mg/kg): no significant change | number of Nissl bodies, hippocampal CA3 (hippocampal neurons; gardenia extract 0.9 g/kg): increased in a dependent manner | dentate gyrus morphology (angle/shape) (hippocampal neurons; crocin I middle dose 4.5 mg/kg): significant changes | number of Nissl bodies, hippocampal CA1 (hippocampal neurons; gardenia extract 0.9 g/kg): significantly increased | number of Nissl bodies, dentate gyrus (hippocampal neurons; high-dose crocin I (9 mg/kg), gardenia extract 0.9 g/kg): increased significantly | NA expression level in brain tissue (noradrenaline (NA); High dose crocin I 9 mg/kg): 5.60 ± 0.02 ng/mL | NA expression level in brain tissue (noradrenaline (NA); Low dose crocin I 2.25 mg/kg, control 3.78, model 8.08): 5.99 ± 0.02 ng/mL | NA expression level in brain tissue (noradrenaline (NA); Medium dose crocin I 4.5 mg/kg): 6.73 ± 0.18 ng/mL | 5-HTT expression level in brain tissue ([7]; High dose crocin I 9 mg/kg): 427.64 ± 7.00 ng/mL | 5-HTT expression level in brain tissue ([7]; Low dose crocin I 2.25 mg/kg, control 238.58, model 573.69): 374.76 ± 13.24 ng/mL | 5-HTT expression level in brain tissue ([7]; Medium dose crocin I 4.5 mg/kg): 459.21 ± 5.21 ng/mL | content of 5-HTT compared with the model group ([7]; crocin I low-, medium-, high-dose, gardenia extract, positive drug, P < 0.001): significantly reduced
